Earlier results on one compound are cited in US20090069433A1 (priority 2007, published 2009).

The conditions of the data set: pure capsaicinoid; background statement.

Turning to `COc1cc(CNC(=O)CCCC/C=C/C(C)C)ccc1O` [Capsaicin], the “pungency (Scoville scale)” value is listed as 15,000,000-16,000,000 Scoville units.
